The subject of data set [1] is Pfa1 Gpx4−/− cells overexpressing human FSP1 (hFSP1). The experiment in a line: Cell viability (Alamar blue), dose-response toxicity in Gpx4-knockout cells expressing hFSP1. In kind it is cell-based, murine. As to the method: (§1) Cell Lines. 4-hydroxytamoxifen (TAM)-inducible Gpx4^−/− murine immortalized fibroblasts (Pfa1) were reported previously. These cells harbor two loxP-flanked Gpx4 alleles and stably express TAM inducible Cre recombinase allowing the genetic deletion of Gpx4 at will. For all experiments using Gpx4^−/− the well were treated with 4-hydroxitamoxifen (TAM) 1 µM. All cells were cultured with were cultured in DMEM-high glucose (4.5 g glucose/L) with 10% fetal bovine serum (FBS), Glutamax, and 1% penicillin/streptomycin (Gibco, Thermo Fischer) at 37 °C with 5% CO2 and verified to be negative for mycoplasma.
(§2) Cell viability assays. Alamar Blue method: Cells were seeded on 96-well plates (2000 cells per well) and treated with the compounds RSL3, iFSP1 and (liproxstatin-1) after plating. Cell viability was assessed 48 h (unless stated otherwise) after treatment using Alamar Blue as an indicator of viable cells. Alamar blue solution was made by dissolving of 1 g resazurin sodium salt (Thermo Fischer) in 200 mL sterile PBS and sterile filtrated through a 0.22 µm filter. Stock solutions were stored at 4 °C. The working solution was made freshly by adding 200 µL of the stock solution to 25 mL growth media. After 2–4 h incubation time, viability was estimated by measuring the fluorescence using a 540/35 excitation filter and a 590/20 emission on a Spark® microplate reader (Tecan, Zürich, Switzerland).
Codon-optimized Mus musculus (mouse) FSP1 (NP_001034283.1) and Homo sapiens (Human) FSP1 (NP_001185625.1) were synthesized by IDT as gBlocks^TM and subcloned into p442-IRES-blast vectors. The chimera constructs were generated based on the pairwise alignment between the gene of Homo sapiens (Human) and the Mus musculus (Mouse), all the chimeric constructs contain the murine isoform with one region exchanged to the human isoform. […]
Background: The colour change of resazurin is a common sign of viable cells or microbes.

The test system of data set [2] is Pfa1 Gpx4−/− cells overexpressing murine FSP1 (mFSP1). As to the kind of experiment: Cell viability (Alamar blue), dose-response toxicity in Gpx4-knockout cells expressing mFSP1. In kind it is cell-based. As to the method:
as §1
as §2, with “Switzerland). […]” for “Switzerland).”

In data set [3] the test system is Pfa1 Gpx4−/− overexpressing chimeric FSP1 C1. As to the kind of experiment: Cell viability (Alamar blue), chimeric construct C1. It counts as cell-based, murine. Particulars: Mus musculus; chimeric construct C1 (human residues 1 to 59); x axis iFSP1 (μM); read-out: IC50 (dose-response toxicity). Here is the method: as §1
as §2, with “Switzerland). […]” for “Switzerland).”

The subject of data set [4] is Pfa1 Gpx4−/− overexpressing chimeric FSP1 C2. As to the kind of experiment: Cell viability (Alamar blue), chimeric construct C2. Particulars: Mus musculus; chimeric construct C2 (human residues 59 to 120); x axis iFSP1 (μM); read-out: IC50 (dose-response toxicity). It counts as cell-based, murine. As to the method: as §1
as §2, with “Switzerland). […]” for “Switzerland).”

For data set [5], the system named is Pfa1 Gpx4−/− overexpressing chimeric FSP1 C3. As to the kind of experiment: Cell viability (Alamar blue), chimeric construct C3. It counts as cell-based, murine. To be noted: Mus musculus; chimeric construct C3 (human residues 121 to 180); x axis iFSP1 (μM); read-out: IC50 (dose-response toxicity). Here is the method:
as §1
as §2, with “Switzerland). […]” for “Switzerland).”

Data set [6] has as its system Pfa1 Gpx4−/− overexpressing chimeric FSP1 C4. The experiment in a line: Cell viability (Alamar blue), chimeric construct C4. It counts as cell-based, murine. To be noted: Mus musculus; chimeric construct C4 (human residues 181 to 240); x axis iFSP1 (μM); read-out: IC50 (dose-response toxicity). As to the method:
as §1
as §2, with “Switzerland). […]” for “Switzerland).”

Data set [7] has as its system Pfa1 Gpx4−/− overexpressing chimeric FSP1 C5. As to the kind of experiment: Cell viability (Alamar blue), chimeric construct C5. It counts as cell-based, murine. To be noted: Mus musculus; chimeric construct C5 (human residues 241 to 300); x axis iFSP1 (μM); read-out: IC50 (dose-response toxicity). Here is the method:
as §1
as §2, with “Switzerland). […]” for “Switzerland).”

Data set [8] concerns Pfa1 Gpx4−/− overexpressing chimeric FSP1 C6. As to the kind of experiment: Cell viability (Alamar blue), chimeric construct C6. It counts as cell-based, murine. As to the method: as §1
as §2, with “Switzerland). […]” for “Switzerland).”

Data set [9] deals with Pfa1 Gpx4−/− overexpressing mFSP1 K319Q. The experiment in a line: Cell viability (Alamar blue), mFSP1 K319Q. In kind it is cell-based, murine. To be noted: Mus musculus, x axis iFSP1 (μM), read-out: IC50 (dose-response toxicity). Here is the method:
as §1, §2

The subject of data set [10] is Pfa1 Gpx4−/− overexpressing mFSP1 L360F. As to the kind of experiment: Cell viability (Alamar blue), mFSP1 L360F. It counts as cell-based, murine. As to the method:
as §1, §2

The subject of data set [11] is Pfa1 Gpx4−/− overexpressing hFSP1 F360L. As to the kind of experiment: Cell viability (Alamar blue), hFSP1 F360L. It counts as cell-based, murine. Here is the method:
as §1, §2

Data set [12] concerns Pfa1 Gpx4−/− overexpressing hFSP1 Y296A. As to the kind of experiment: Cell viability (Alamar blue), hFSP1 Y296A. In kind it is cell-based, murine. As to the method: as §1, §2
The subject of data set [13] is Pfa1 Gpx4−/− overexpressing hFSP1 F360A. The experiment in a line: Cell viability (Alamar blue), hFSP1 F360A. In kind it is cell-based, murine. As to the method: as §1, §2
For data set [14], the system named is Pfa1 Gpx4−/− overexpressing hFSP1 Y296A/F360A. As to the kind of experiment: Cell viability (Alamar blue), hFSP1 Y296A/F360A. It counts as cell-based, murine. As to the method: as §1, §2
For data set [15], the system named is Pfa1 Gpx4−/− cell line overexpressing hFSP1, mFSP1 and hFSP1 F360L mutants. The experiment in a line: BODIPY 581/591 C11 oxidation (flow cytometry). In kind it is cell-based, murine. Particulars: iFSP1 3 µM for 3 h; all conditions, highest for hFSP1 WT. Here is the method: In total, 150,000 cells per well were seeded on 6-well dishes one day prior to the experiment. […] Cells were incubated with C11-BODIPY (581/591) (1 μM) for 30 min at 37 °C before they were harvested by trypsinisation. Subsequently, cells were resuspended in 500 μL of fresh PBS (DPBS, Gibco) and analyzed using a 488-nm laser excitation laser and fluorescence recorded on a (FACS Canto II, BD Biosciences). Data was collected from the FL1 detector (C11-BODIPY, Invitrogen) with a 502LP and 530/30 BP filter. At least 20,000 events were analyzed per sample. Data was analyzed using FlowJo Software version 10.8.1.
Background: Flow cytometry measures light scatter and fluorescence of single cells or particles in a stream.

A short description of a further data set: Water solubility. It counts as physicochemical.
Setting [16] is: Mus musculus, x axis iFSP1 (μM), read-out: IC50 (dose-response toxicity).

One may read the IC50 as the concentration that gives 50% inhibition. On to `Cc1ccc(-c2c(C#N)c(N)n3c(nc4ccccc43)c2C#N)cc1` [iFSP1], for which the IC50 in data set [1] (Mus musculus, hFSP1 WT, Δ curve (no Lip-1), Alamar blue, x axis iFSP1 (μM)) came out at 0.45 µM; in data set [2] (Mus musculus, mFSP1 WT, Δ curve (no Lip-1), Alamar blue, x axis iFSP1 (μM)), 7.48 µM; in [3], 9.41 µM; in [4], 6.2 µM; in [5] it was 8.71 µM; in data set [6], 8.96 µM. The half-maximal inhibitory concentration (IC50) in data set [7] is 6.82 µM; in [8] (Mus musculus, chimeric construct C6 (human residues 301 till 373), x axis iFSP1 (μM), read-out: IC50 (dose-response toxicity)), 1.64 µM; in data set [9], 5.62 µM; in data set [10] (setting [16]), 0.95 µM; in [11] (setting [16]), 6.18 µM; in data set [12] (setting [16]) it was 5.62 µM. For the same compound, the IC50 in [13] (setting [16]) and in [14] (setting [16]) was 5.62 µM throughout. In addition, the induction of ferroptosis result in data set [1] (human isoform) was “induce ferroptosis”; in [2] (murine isoform), “could only induce ferroptosis in the cell line expressing the human isoform”; in data set [8] (chimera C6), “underwent ferroptosis upon iFSP1 treatment”. Moreover, the “iFSP1-mediated inhibition of FSP1 (ferroptosis induction)” value in [10] is on record as “restored the iFSP1-mediated inhibition of mFSP1”. Besides, the “capacity to induce ferroptosis” value in [11] is “completely abolished the capacity of iFSP1 to induce ferroptosis”. For the same compound, the “inhibitor activity (ferroptosis induction)” value in [12], in [13] and in data set [14] was “abolishes the inhibitor activity” each time. In addition, in data set [15], the “BODIPY-C11 oxidation induced by iFSP1” value is reported as “small increase”. In “Water solubility”, the water solubility entry is given as “poor”.

Values taken from publication PMC10119282, “Molecular characterization of AIFM2/FSP1 inhibition by iFSP1-like molecules” (Cell Death & Disease, 2023).
